Experiment: xn = mol fraction of the nth substance listed
Details: 101.3 kPa, Liquid; for viscosity: Concentric cylinders viscometry; for mass density: Vibrating tube method

CCn1cc[n+](C)c1C.O=S(=O)([N-]S(=O)(=O)C(F)(F)F)C(F)(F)F + COC(=O)OC
Details	mass density [kg/m3]	viscosity [mPa·s]
293.15 K, x1 = 0.099	1189	1.706
293.15 K, x1 = 0.1994	1269.4	3.137
293.15 K, x1 = 0.298	1325	5.492
293.15 K, x1 = 0.4006	1368.1	9.266
293.15 K, x1 = 0.5003	1400.9	14.65
293.15 K, x1 = 0.5738	1420.8	20.1
293.15 K, x1 = 0.6927	1447.3	31.98
293.15 K, x1 = 0.8138	1469.2	49.28
293.15 K, x1 = 0.8951	1481.5	64.02
293.15 K, x1 = 1	1495.8	89.88
298.15 K, x1 = 0.099	1183	1.581
298.15 K, x1 = 0.1994	1263.8	2.849
298.15 K, x1 = 0.298	1319.6	4.9
298.15 K, x1 = 0.4006	1362.9	8.114
298.15 K, x1 = 0.5003	1395.7	12.58
298.15 K, x1 = 0.5738	1415.7	17.03
298.15 K, x1 = 0.6927	1442.3	26.57
298.15 K, x1 = 0.8138	1464.3	40.16
298.15 K, x1 = 0.8951	1476.7	51.6
298.15 K, x1 = 1	1491	71.34
303.15 K, x1 = 0.099	1177	1.469
303.15 K, x1 = 0.1994	1258.1	2.6
303.15 K, x1 = 0.298	1314.2	4.402
303.15 K, x1 = 0.4006	1357.7	7.169
303.15 K, x1 = 0.5003	1390.6	10.91
303.15 K, x1 = 0.5738	1410.6	14.6
303.15 K, x1 = 0.6927	1437.4	22.36
303.15 K, x1 = 0.8138	1459.4	33.22
303.15 K, x1 = 0.8951	1471.8	42.25
303.15 K, x1 = 1	1486.3	57.64
308.15 K, x1 = 0.099	1171	1.368
308.15 K, x1 = 0.1994	1252.4	2.383
308.15 K, x1 = 0.298	1308.8	3.98
308.15 K, x1 = 0.4006	1352.5	6.384
308.15 K, x1 = 0.5003	1385.5	9.555
308.15 K, x1 = 0.5738	1405.6	12.64
308.15 K, x1 = 0.6927	1432.4	19.05
308.15 K, x1 = 0.8138	1454.5	27.85
308.15 K, x1 = 0.8951	1467	35.08
308.15 K, x1 = 1	1481.5	47.26
313.15 K, x1 = 0.099	1164.8	1.276
313.15 K, x1 = 0.1994	1246.8	2.192
313.15 K, x1 = 0.298	1303.4	3.619
313.15 K, x1 = 0.4006	1347.3	5.728
313.15 K, x1 = 0.5003	1380.4	8.44
313.15 K, x1 = 0.5738	1400.5	11.05
313.15 K, x1 = 0.6927	1427.5	16.38
313.15 K, x1 = 0.8138	1449.7	23.62
313.15 K, x1 = 0.8951	1462.2	29.48
313.15 K, x1 = 1	1476.7	39.24
318.15 K, x1 = 0.099	1158.7	1.193
318.15 K, x1 = 0.1994	1241.2	2.023
318.15 K, x1 = 0.298	1298	3.308
318.15 K, x1 = 0.4006	1342.1	5.173
318.15 K, x1 = 0.5003	1375.3	7.511
318.15 K, x1 = 0.5738	1395.5	9.74
318.15 K, x1 = 0.6927	1422.6	14.24
318.15 K, x1 = 0.8138	1444.8	20.25
318.15 K, x1 = 0.8951	1457.4	25.06
318.15 K, x1 = 1	1472	33
323.15 K, x1 = 0.099	1152.5	1.114
323.15 K, x1 = 0.1994	1235.5	1.87
323.15 K, x1 = 0.298	1292.7	3.037
323.15 K, x1 = 0.4006	1336.9	4.699
323.15 K, x1 = 0.5003	1370.2	6.73
323.15 K, x1 = 0.5738	1390.5	8.649
323.15 K, x1 = 0.6927	1417.6	12.48
323.15 K, x1 = 0.8138	1440	17.52
323.15 K, x1 = 0.8951	1452.6	21.53
323.15 K, x1 = 1	1467.2	28.05
328.15 K, x1 = 0.099	1146.3	1.042
328.15 K, x1 = 0.1994	1230	1.737
328.15 K, x1 = 0.298	1287.3	2.802
328.15 K, x1 = 0.4006	1331.7	4.286
328.15 K, x1 = 0.5003	1365.2	6.083
328.15 K, x1 = 0.5738	1385.5	7.757
328.15 K, x1 = 0.6927	1412.7	11.06
328.15 K, x1 = 0.8138	1435.1	15.34
328.15 K, x1 = 0.8951	1447.8	18.72
328.15 K, x1 = 1	1462.4	24.16

Source: the NIST ThermoML archive (doi:10.1016/j.jct.2018.10.015)
